Assays:
Format in all cases: cell-based, murine
[1] = tested on: FOXM1; experiment: Western blot of FOXM1 levels in GT1-7 CARY cells; settings: relative to p84 loading control, FIG. 3C
Text: Western Blot. Cell lysates was separated on a 6% SDS page gel and transferred to a nitrocellulose membrane. The membrane was blocked for one hour in 5% skim milk dissolved in TBS-T and probed with the following antibodies ([…]): FoxM1 (rabbit, GeneTex), AR: 441 (mouse, Santa Cruz Biotechnology), β-catenin (rabbit 9562, Cell Signaling Technology), p84 (mouse, GeneTex) and actin (mouse, Santa Cruz Biotechnology). Horse radish peroxidase linked secondary antibodies were used along with ECL reagents for visualization. Western blots were quantified using Quantity One analysis software (BioRad).
It has been previously reported that thiostrepton causes decreased levels of FOXM1. Hegde et al, Nat Chem, 3(9):725-31 (2011); Gartel, Front Oncol, 3:150 (2013). […] The nuclear association between FOXM1 and β-catenin increases the transcriptional activity of both factors. Zhang et al, Cancer Cell, 20(4):427-42 (2011). β-catenin is a key AR coactivator in a variety of cells. Yang, J Biol Chem, 277(13):11336-44 (2002); Truica et al, Cancer Res, 60(17):4709-13 (2000). The inventors believed that thiostrepton could inhibit AR activity by limiting access to nuclear β-catenin via FOXM1 depletion. […] As expected, control actin protein was observed primarily in cytoplasmic fraction.

[2] = tested on: AR; experiment: Androgen-responsive luciferase reporter assay in C2C12 cells; settings: treated overnight, FIG. 2A
Text: Luciferase Reporter Assay. Cells were transfected using Lipofectamine Plus (Invitrogen) with a normalization plasmid (pRL-SV40, Promega) and an androgen responsive plasmid (MMTV-luciferase or PSA-luciferase) as described in Jones et al, ACS Chem Biol, 3(7):412-8 (2008), and, where indicated, with an shRNA plasmid targeting FOXM1 (adapted for mouse FOXM1 sequence targeting) a scrambled control shRNA plasmid, or ARQ24 or ARQ65 plasmids. Christensen et al, PLoS One, 8(1):e54556 (2013). The following day, cells and drugs were distributed to 96-well plates. 24 hours later, luciferase activity was assessed by a dual luciferase assay kit (Promega) on the Tecan plate reader. Samples were run in quadruplicates and a Student's t test was performed to determine significance, where p<0.05 was considered significant.
In order to identify potential cell-type selective AR modulators, the FRET-based assay of AR conformation change was utilized. AR signaling is a complex process involving many steps in addition to ligand binding. One crucial step is the ligand-induced conformational change of AR, which brings the carboxy (C)- and amino (N)-termini of the receptor together. Full length AR with cyan fluorescent protein (CFP) or yellow fluorescent protein (YFP) fused to either end (CARY) produces a FRET signal upon AR conformation change (FIG. 1A). This produces an accurate and quantifiable read-out of AR activity. Jones et al, ACS Chem Biol, 3(7):412-8 (2008). Because the interest was in the potential of neuron selective AR inhibitors for treatment of SBMA, the initial screen was carried out in CARY-transfected GT1-7 cells, which are a mouse model of hypothalamic neurons. Liposits et al, Endocrinology, 129(3):1575-83 (1991). Cells were plated in 96 wells and treated with library compounds 24 hours prior to accessing conformational changes by FRET. […] Candidate hits were then further evaluated by dose response. […] In addition to FRET, AR transcriptional activity was also assessed in several cell lines by transfecting cells with a luciferase reporter driven by the human PSA promoter. […]

[3] = tested on: AR; experiment: Androgen-responsive luciferase reporter assay in GT1-7 cells; settings: GT1-7 cells, treated overnight, FIG. 2A
Method: Luciferase Reporter Assay. […] The following day, cells and drugs were distributed to 96-well plates. 24 hours later, luciferase activity was assessed by a dual luciferase assay kit (Promega) on the Tecan plate reader. Samples were run in quadruplicates and a Student's t test was performed to determine significance, where p<0.05 was considered significant.
In order to identify potential cell-type selective AR modulators, the FRET-based assay of AR conformation change was utilized. AR signaling is a complex process involving many steps in addition to ligand binding. One crucial step is the ligand-induced conformational change of AR, which brings the carboxy (C)- and amino (N)-termini of the receptor together. Full length AR with cyan fluorescent protein (CFP) or yellow fluorescent protein (YFP) fused to either end (CARY) produces a FRET signal upon AR conformation change (FIG. 1A). This produces an accurate and quantifiable read-out of AR activity. […] Cells were plated in 96 wells and treated with library compounds 24 hours prior to accessing conformational changes by FRET. […] Candidate hits were then further evaluated by dose response. […] In addition to FRET, AR transcriptional activity was also assessed in several cell lines by transfecting cells with a luciferase reporter driven by the human PSA promoter.

| SMILES | FOXM1 levels (Western blot) [1] | inhibition of AR transcriptional activity (luciferase) [2] | inhibition of AR transcriptional activity (luciferase) [3] |
| --- | --- | --- | --- |
| C[C@]12CCC(=O)C[C@@H]1CC[C@@H]1[C@@H]2CC[C@]2(C)[C@@H](O)CC[C@@H]12 [DHT, dihydrotestosterone] | increased |  |  |
| Nc1c(C(=O)Nc2ccc(F)cc2)sc2nc(-c3cccs3)cc(C(F)(F)F)c12 [FDI-6] |  | not C2C12 cells | inhibited AR activity |

Reference: patent US11167007B2, “FOXM1 modulators and uses thereof” (City of Hope, priority 2016, dated 2021)
